# Target: T1, full length MPS1 (Homo sapiens, UniProt P33981)
# T1 sequence (P33981 1-857): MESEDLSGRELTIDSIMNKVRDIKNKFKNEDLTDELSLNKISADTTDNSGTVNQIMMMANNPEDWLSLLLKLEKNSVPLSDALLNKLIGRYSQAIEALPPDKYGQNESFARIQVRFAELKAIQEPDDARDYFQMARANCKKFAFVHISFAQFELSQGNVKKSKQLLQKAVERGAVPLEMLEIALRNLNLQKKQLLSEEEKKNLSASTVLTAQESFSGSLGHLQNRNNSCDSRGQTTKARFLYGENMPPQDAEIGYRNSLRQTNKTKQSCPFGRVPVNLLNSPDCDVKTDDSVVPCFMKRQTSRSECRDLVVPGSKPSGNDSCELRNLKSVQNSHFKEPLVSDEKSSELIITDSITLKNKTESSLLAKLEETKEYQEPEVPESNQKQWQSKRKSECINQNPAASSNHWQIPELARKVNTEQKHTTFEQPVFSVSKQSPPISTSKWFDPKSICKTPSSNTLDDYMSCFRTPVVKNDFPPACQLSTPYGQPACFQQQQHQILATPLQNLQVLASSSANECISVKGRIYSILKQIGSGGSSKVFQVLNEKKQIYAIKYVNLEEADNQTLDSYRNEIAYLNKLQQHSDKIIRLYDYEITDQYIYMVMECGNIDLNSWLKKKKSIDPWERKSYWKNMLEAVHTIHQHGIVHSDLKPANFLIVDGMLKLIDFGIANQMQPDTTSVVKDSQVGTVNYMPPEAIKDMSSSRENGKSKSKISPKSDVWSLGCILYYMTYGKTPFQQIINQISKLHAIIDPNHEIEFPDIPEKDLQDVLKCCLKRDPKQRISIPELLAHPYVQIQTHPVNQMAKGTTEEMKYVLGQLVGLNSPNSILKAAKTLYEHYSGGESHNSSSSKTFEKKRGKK
# Assay: biochemical
row,Structure (SMILES),IC50 [nM]
1,"COc1cc(C(=O)N2CC(OC)C2)ccc1Nc1cc2[nH]c(-c3cnco3)cc2cn1 [Example 179, (3-Methoxy-4-(2-(oxazol-5-yl)-1H-pyrrolo[3,2-c]pyridin-6-ylamino)phenyl)(3-methoxyazetidin-1-yl)methanone]",3
2,"CN(C)C(=O)c1ccc(Nc2cc3[nH]c(-c4cnco4)cc3cn2)c(Cl)c1 [Example 180, 3-Chloro-N,N-dimethyl-4-(2-(oxazol-5-yl)-1H-pyrrolo[3,2-c]pyridin-6-ylamino)benzamide]",5
3,"Cn1cc(-c2ccc(Cl)c(Nc3cc4[nH]c(-c5cnn(C)c5)cc4cn3)c2)cn1 [Example 184, N-(2-Chloro-5-(1-methyl-1H-pyrazol-4-yl)phenyl)-2-(1-methyl-1H-pyrazol-4-yl)-1H-pyrrolo[3,2-c]pyridin-6-amine]",548
4,"Cn1cncc1-c1ccc(Nc2cc3[nH]c(-c4cnco4)cc3cn2)c(Cl)c1 [Example 185, N-(2-Chloro-4-(1-methyl-1H-imidazol-5-yl)phenyl)-2-(oxazol-5-yl)-1H-pyrrolo[3,2-c]pyridin-6-amine]",5
5,"Cc1ncc(-c2ccc(Nc3cc4[nH]c(-c5cnco5)cc4cn3)c(Cl)c2)n1C [Example 186, N-(2-Chloro-4-(1,2-dimethyl-1H-imidazol-5-yl)phenyl)-2-(oxazol-5-yl)-1H-pyrrolo[3,2-c]pyridin-6-amine]",1
6,"CS(=O)(=O)n1c(-c2cn[nH]c2)cc2cnc(Nc3ccc(F)cc3)cc21 [Example 187, N-(4-fluorophenyl)-1-(methylsulfonyl)-2-(1H-pyrazol-4-yl)-1H-pyrrolo[3,2-c]pyridin-6-amine]",6430
7,"Fc1ccc(Nc2cc3[nH]c(-c4cn[nH]c4)cc3cn2)cc1 [Example 188, N-(4-fluorophenyl)-2-(1H-pyrazol-4-yl)-1H-pyrrolo[3,2-c]pyridin-6-amine]",140
8,"Fc1ccc(Nc2cc3[nH]c(-c4cn[nH]c4)cc3cn2)nc1 [Example 189, N-(5-fluoropyridin-2-yl)-2-(1H-pyrazol-4-yl)-1H-pyrrolo[3,2-c]pyridin-6-amine]",159
9,"CN(C)C(=O)c1ccc(Nc2cc3[nH]c(-c4cnn(C)c4)c(Cl)c3cn2)c(Cl)c1 [Example 190, 3-Chloro-4-(3-chloro-2-(1-methyl-1H-pyrazol-4-yl)-1H-pyrrolo[3,2-c]pyridin-6-ylamino)-N,N-dimethylbenzamide]",8.4
10,"CN(C)C(=O)c1ccc(Nc2cc3c(cn2)c(Cl)c(-c2cnn(C)c2)n3CC2CCCC2)c(Cl)c1 [Example 191, 3-Chloro-4-(3-chloro-1-(cyclopentylmethyl)-2-(1-methyl-1H-pyrazol-4-yl)-1H-pyrrolo[3,2-c]pyridin-6-ylamino)-N,N-dimethylbenzamide]",97
11,"CN(C)C(=O)c1ccc(Nc2cc3c(cn2)c(Cl)c(-c2cnn(C)c2)n3CC2CC2)c(Cl)c1 [Example 192, 3-Chloro-4-(3-chloro-1-(cyclopropylmethyl)-2-(1-methyl-1H-pyrazol-4-yl)-1H-pyrrolo[3,2-c]pyridin-6-ylamino)-N,N-dimethylbenzamide]",53
12,"Cn1cc(-c2[nH]c3cc(Nc4ccccc4Cl)ncc3c2Cl)cn1 [Example 193, 3-Chloro-N-(2-chlorophenyl)-2-(1-methyl-1H-pyrazol-4-yl)-1H-pyrrolo[3,2-c]pyridin-6-amine]",421
13,"Cn1cc(-c2ccc(Nc3cc4[nH]c(-c5cnn(C)c5)c(Cl)c4cn3)c(Cl)c2)cn1 [Example 194, 3-Chloro-N-(2-chloro-4-(1-methyl-1H-pyrazol-4-yl)phenyl)-2-(1-methyl-1H-pyrazol-4-yl)-1H-pyrrolo[3,2-c]pyridin-6-amine]",128
14,"COC1CN(C(=O)c2ccc(Nc3cc4[nH]c(-c5cnn(C)c5)c(Cl)c4cn3)c(Cl)c2)C1 [Example 195, (3-chloro-4-(3-chloro-2-(1-methyl-1H-pyrazol-4-yl)-1H-pyrrolo[3,2-c]pyridin-6-ylamino)phenyl)(3-methoxyazetidin-1-yl)methanone]",21
15,"Cn1cc(-c2[nH]c3cc(Nc4ccc(C(=O)N5CCS(=O)(=O)CC5)cc4Cl)ncc3c2Cl)cn1 [Example 196, (3-Chloro-4-(3-chloro-2-(1-methyl-1H-pyrazol-4-yl)-1H-pyrrolo[3,2-c]pyridin-6-ylamino)phenyl)(S,S-dioxo-thiomorpholino)methanone]",9
16,"Cn1cc(-c2[nH]c3cc(Nc4ccc(S(C)(=O)=O)cc4Cl)ncc3c2Cl)cn1 [Example 197, 3-Chloro-N-(2-chloro-4-(methylsulfonyl)phenyl)-2-(1-methyl-1H-pyrazol-4-yl)-1H-pyrrolo[3,2-c]pyridin-6-amine]",69

# — patent US9371319B2, “Pyrrolopyridineamino derivatives as MPS1 inhibitors” (priority 2011, dated 2016)
